Where “and” joins values, the source holds several entries; their conditions need not be identical. Equal values may be shown once.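 All cell lines were grown in 96-well plates and treated with compound for 48 hours. Abbreviation: GI50, concentration required for 50% inhibition of growth. TGI marks complete inhibition of growth.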
Experiments:
Assay in all cases: growth of human tumour cells (NCI), 48 h
NCI-H23 lung = tested on: NCI-H23 lung
786-0 renal = tested on: 786-0 renal
MDA-MB-435 = tested on: MDA-MB-435
SK-OV-3 ovarian = tested on: SK-OV-3 ovarian
HCT-15 colon = tested on: HCT-15 colon
SK-MEL-28 melanoma = tested on: SK-MEL-28 melanoma
SK-MEL-2 melanoma = tested on: SK-MEL-2 melanoma
A498 renal = tested on: A498 renal
MOLT-4 leukemia = tested on: MOLT-4 leukemia
HCT-116 colon = tested on: HCT-116 colon
PC-3 prostate = tested on: PC-3 prostate
CCRF-CEM leukemia = tested on: CCRF-CEM leukemia
OVCAR-8 ovarian = tested on: OVCAR-8 ovarian
K-562 leukemia = tested on: K-562 leukemia
SW-620 colon = tested on: SW-620 colon
LOX IMVI melanoma = tested on: LOX IMVI melanoma
CAKI-1 renal = tested on: CAKI-1 renal
M14 melanoma = tested on: M14 melanoma
KM12 colon = tested on: KM12 colon
NCI-H226 lung = tested on: NCI-H226 lung
A549 NSCLC = tested on: A549 NSCLC
SF-268 CNS = tested on: SF-268 CNS
SN12C renal = tested on: SN12C renal
RPMI-8226 leukemia = tested on: RPMI-8226 leukemia
MDA-MB-231 breast = tested on: MDA-MB-231 breast
SR leukemia = tested on: SR leukemia
NCI/ADR-RES ovarian = tested on: NCI/ADR-RES ovarian
SNB-19 CNS = tested on: SNB-19 CNS
HOP-92 NSCLC = tested on: HOP-92 NSCLC
SF-295 CNS = tested on: SF-295 CNS
MCF7 breast = tested on: MCF7 breast
DU-145 prostate = tested on: DU-145 prostate
OVCAR-4 ovarian = tested on: OVCAR-4 ovarian
NCI-H522 lung = tested on: NCI-H522 lung
HCC-2998 colon = tested on: HCC-2998 colon
COLO 205 colon = tested on: COLO 205 colon
NCI-H460 lung = tested on: NCI-H460 lung
UACC-257 melanoma = tested on: UACC-257 melanoma
MALME-3M melanoma = tested on: MALME-3M melanoma
UO-31 renal = tested on: UO-31 renal
U251 CNS = tested on: U251 CNS
HS 578T breast = tested on: HS 578T breast
ACHN renal = tested on: ACHN renal
UACC-62 melanoma = tested on: UACC-62 melanoma
SF-539 CNS = tested on: SF-539 CNS
HT29 colon = tested on: HT29 colon

Compound: COC(=O)c1cc2c(cc1O)[C@@H](NC(C)=O)CCc1cc(OC)c(OC)c(OC)c1-2
- GI50 (NCI-H23 lung): 21.7 nM
- TGI (NCI-H23 lung): 84.8 nM and 71.2 nM
- GI50 (786-0 renal): 41.6 nM
- TGI (786-0 renal): > 100 µM
- GI50 (MDA-MB-435): < 10 nM
- TGI (MDA-MB-435): 1230 nM
- GI50 (SK-OV-3 ovarian): 83.1 nM
- TGI (SK-OV-3 ovarian): > 100 µM
- GI50 (HCT-15 colon): 22.6 nM
- GI50 (SK-MEL-28 melanoma): > 100 µM
- TGI (SK-MEL-28 melanoma): > 100 µM
- GI50 (SK-MEL-2 melanoma): < 10 nM
- TGI (SK-MEL-2 melanoma): 37.1 nM
- GI50 (A498 renal): 42.2 nM
- GI50 (MOLT-4 leukemia): 47.2 nM
- TGI (MOLT-4 leukemia): 81.8 µM
- GI50 (HCT-116 colon): 16.4 nM
- GI50 (PC-3 prostate): 15 nM
- TGI (PC-3 prostate): > 100 µM
- GI50 (CCRF-CEM leukemia): 39.8 nM
- TGI (CCRF-CEM leukemia): > 100 µM
- GI50 (OVCAR-8 ovarian): 40.4 nM
- GI50 (K-562 leukemia): 24.6 nM
- TGI (K-562 leukemia): > 100 µM
- GI50 (SW-620 colon): 23.5 nM
- TGI (SW-620 colon): > 100 µM
- TGI (LOX IMVI melanoma): > 100 µM
- GI50 (CAKI-1 renal): 21.4 nM
- TGI (CAKI-1 renal): > 100 µM
- GI50 (M14 melanoma): 29.3 nM
- TGI (M14 melanoma): > 100 µM
- GI50 (KM12 colon): < 10 nM
- GI50 (NCI-H226 lung): 30.9 nM
- GI50 (A549 NSCLC): 31.3 nM
- TGI (A549 NSCLC): > 100 µM
- GI50 (SF-268 CNS): 447 nM
- TGI (SF-268 CNS): > 100 µM
- GI50 (SN12C renal): 40.8 nM
- TGI (SN12C renal): > 100 µM
- GI50 (RPMI-8226 leukemia): 52.4 nM
- TGI (RPMI-8226 leukemia): > 100 µM
- GI50 (MDA-MB-231 breast): 54.2 nM
- TGI (MDA-MB-231 breast): > 100 µM
- GI50 (SR leukemia): < 10 nM
- TGI (SR leukemia): > 100 µM
- GI50 (NCI/ADR-RES ovarian): 59.6 nM
- GI50 (SNB-19 CNS): 35.5 nM
- TGI (SNB-19 CNS): > 100 µM
- TGI (HOP-92 NSCLC): 8.75 µM
- GI50 (SF-295 CNS): < 10 nM
- TGI (SF-295 CNS): > 100 µM
- TGI (MCF7 breast): > 100 µM
- TGI (DU-145 prostate): > 100 µM
- GI50 (OVCAR-4 ovarian): 1060 nM
- TGI (OVCAR-4 ovarian): > 100 µM
- TGI (NCI-H522 lung): 190 nM
- GI50 (HCC-2998 colon): 35.5 nM
- GI50 (COLO 205 colon): 23.6 nM
- TGI (COLO 205 colon): 1560 nM and 1180 nM
- GI50 (NCI-H460 lung): 29.6 nM
- TGI (NCI-H460 lung): > 100 µM
- GI50 (UACC-257 melanoma): 27.4 nM
- TGI (UACC-257 melanoma): > 100 µM
- GI50 (MALME-3M melanoma): 29.9 nM
- GI50 (UO-31 renal): 62.6 nM
- TGI (UO-31 renal): > 100 µM
- GI50 (U251 CNS): 40.2 nM
- TGI (U251 CNS): 1170 nM
- TGI (HS 578T breast): 48.1 nM
- GI50 (ACHN renal): 45.9 nM
- TGI (ACHN renal): > 100 µM
- GI50 (UACC-62 melanoma): 15.9 nM
- TGI (UACC-62 melanoma): > 100 µM
- TGI (SF-539 CNS): 76.6 µM
- GI50 (HT29 colon): 20.6 nM
- TGI (HT29 colon): 201 nM and 55.4 nM
